The values below come from PubChem BioAssay (NCI).

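A five-concentration, 48-hour dose response in 96-well plates underlies each endpoint, interpolated linearly between surrounding concentrations. The concentration for 50% growth inhibition is given as GI50. TGI: total growth inhibition.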

Test systems include 786-0 renal; A498 renal; CCRF-CEM leukemia; KM12 colon; LOX IMVI melanoma; MALME-3M melanoma; OVCAR-3 ovarian; RXF 393 renal; SF-295 CNS; SK-OV-3 ovarian.
What all share (assay): NCI-60 cell line screen, 48 h

Take `c1ccc2[nH]c(-c3ccc(Nc4nc(N5CCCCC5)nc(N5CCOCC5)n4)cc3)nc2c1`: the GI50 with 786-0 renal is 1.54 µM; in the assay on A498 renal it was 1.77 µM; in the assay with CCRF-CEM leukemia it was 3.25 µM; in the assay on KM12 colon, 2.85 µM; with LOX IMVI melanoma it was 1.75 µM; in the assay with MALME-3M melanoma, 1.87 µM. Further, the GI50 in the assay with OVCAR-3 ovarian is 2.4 µM; in the assay with RXF 393 renal, 0.808 µM; in the assay on SF-295 CNS, 1.85 µM; in the assay on SK-OV-3 ovarian it was 2.37 µM. Further, the TGI with 786-0 renal is 3.21 µM; with A498 renal, 4.18 µM; in the assay with CCRF-CEM leukemia, > 100 µM; in the assay with KM12 colon, 9.54 µM; in the assay on LOX IMVI melanoma, 3.58 µM; with MALME-3M melanoma, 3.57 µM. Further, the TGI stood at 6.19 µM in the assay on OVCAR-3 ovarian, 3.28 µM in the assay on RXF 393 renal, 4.6 µM with SF-295 CNS and 5.43 µM with SK-OV-3 ovarian.
As for `CC1(C)CC2C(=O)c3ccccc3NC2c2ccccc21` (centres undefined), the TGI in the assay with 786-0 renal was > 100 µM; in the assay on A498 renal, > 100 µM; with CCRF-CEM leukemia, > 100 µM; with KM12 colon, > 81.3 µM; in the assay on LOX IMVI melanoma, > 100 µM; with MALME-3M melanoma, > 100 µM. The figures for the TGI in the assay on OVCAR-3 ovarian, in the assay on RXF 393 renal and in the assay on SF-295 CNS were > 100 µM, 8.58 µM and > 22.9 µM, respectively.
As for `CCOC(=O)c1cc2c3c(c(O)c(OC)c2s1)N(C(=O)c1cc2c4c(c(O)c(OC)c2s1)N(C(C)=O)CC4)CC3`, the TGI in the assay with 786-0 renal, with A498 renal, with CCRF-CEM leukemia, in the assay on KM12 colon, in the assay on LOX IMVI melanoma and in the assay with MALME-3M melanoma was > 100 µM throughout. The TGI in the assay with OVCAR-3 ovarian, with RXF 393 renal, in the assay on SF-295 CNS and in the assay with SK-OV-3 ovarian was > 100 µM in each case.
`CSC(=S)N/N=C/c1nccc2ccccc12`: the TGI turned out to be 12.6 µM with 786-0 renal; 13.6 µM with A498 renal; 8.8 µM with CCRF-CEM leukemia; 15.6 µM in the assay on KM12 colon; 13.1 µM with LOX IMVI melanoma; 32.7 µM in the assay with MALME-3M melanoma. Moreover, the TGI with RXF 393 renal is 6.01 µM; in the assay with SF-295 CNS, 8.54 µM; with SK-OV-3 ovarian, 29.8 µM.
As to `Cc1ccc(-c2nc3nc(-c4ccc(F)cc4)nc(N4CCCNCC4)c3o2)cc1`, the GI50 in the assay on 786-0 renal was 1.83 µM; in the assay with A498 renal, 1.68 µM; in the assay with CCRF-CEM leukemia, 0.293 µM; in the assay with KM12 colon, 1.79 µM; with LOX IMVI melanoma, 1.18 µM; in the assay on MALME-3M melanoma, 1.71 µM. In addition, the GI50 in the assay on OVCAR-3 ovarian is 1.55 µM; in the assay on RXF 393 renal, 1.59 µM; in the assay with SF-295 CNS, 1.82 µM; in the assay with SK-OV-3 ovarian it was 1.87 µM. Also, the TGI in the assay on 786-0 renal is 3.56 µM; with A498 renal it was 3.12 µM; in the assay with CCRF-CEM leukemia, 1.04 µM; in the assay on KM12 colon it was 3.42 µM; with LOX IMVI melanoma, 2.55 µM; in the assay with MALME-3M melanoma, 3.21 µM. Also, the TGI was 2.96 µM with OVCAR-3 ovarian, 3.11 µM with RXF 393 renal, 3.35 µM in the assay with SF-295 CNS and 3.37 µM in the assay with SK-OV-3 ovarian.
Take `CC(C)(Oc1ccc(/C=C/C(=O)c2ccc(Cl)cc2)cc1)C(=O)Nc1c(Cl)cccc1Cl`: the TGI with 786-0 renal came to 45.8 µM; in the assay with A498 renal it was 32.4 µM; in the assay with KM12 colon, 25 µM; in the assay on LOX IMVI melanoma, 31 µM; in the assay with MALME-3M melanoma, 40.4 µM; with OVCAR-3 ovarian it was 44.8 µM. For the same molecule, the TGI in the assay with RXF 393 renal was 36.9 µM; in the assay with SF-295 CNS, 49.6 µM; in the assay with SK-OV-3 ovarian, > 100 µM.
`CC(C)CCC1(CCN)C(=O)NC(=O)NC1=O`: the TGI was > 100 µM in the assay on 786-0 renal; > 100 µM in the assay on A498 renal; 48.3 µM in the assay with CCRF-CEM leukemia; > 100 µM in the assay with KM12 colon; > 100 µM with LOX IMVI melanoma; > 100 µM with MALME-3M melanoma. Also, the TGI in the assay on OVCAR-3 ovarian, in the assay with RXF 393 renal, with SF-295 CNS and with SK-OV-3 ovarian was > 100 µM in each case.
For `CN1/C(=C\C=C\C2=[N+](C)c3ccccc3C2(C)C)C(C)(C)c2ccccc21`, the GI50 was 0.251 µM in the assay with 786-0 renal; 0.0556 µM in the assay with A498 renal; 0.176 µM with CCRF-CEM leukemia; 0.0363 µM in the assay with KM12 colon; 0.0445 µM with LOX IMVI melanoma; 0.0936 µM in the assay with MALME-3M melanoma. The GI50 with OVCAR-3 ovarian was 0.0514 µM; in the assay on RXF 393 renal, 0.216 µM; in the assay on SF-295 CNS it was 0.0336 µM; in the assay with SK-OV-3 ovarian, 0.152 µM. The TGI with 786-0 renal is 5.44 µM; in the assay with A498 renal, 0.979 µM; in the assay on CCRF-CEM leukemia, 12.6 µM; in the assay on KM12 colon, 0.932 µM; with LOX IMVI melanoma, 0.796 µM; in the assay with MALME-3M melanoma it was 0.818 µM. Besides, the TGI in the assay on OVCAR-3 ovarian came out at 0.948 µM; in the assay with RXF 393 renal, 1.13 µM; in the assay on SF-295 CNS, 1.27 µM; in the assay on SK-OV-3 ovarian, 0.638 µM.
Consider `Cn1cc(C2=C(c3cn(C4CCN(Cc5ccccn5)CC4)c4ccccc34)C(=O)NC2=O)c2ccccc21`, for which the GI50 was 8.43 µM in the assay with 786-0 renal; 3.75 µM with CCRF-CEM leukemia; 3.85 µM in the assay on KM12 colon; 4.9 µM with LOX IMVI melanoma; > 23.4 µM with MALME-3M melanoma; 3.82 µM in the assay with OVCAR-3 ovarian. Besides, the GI50 in the assay with RXF 393 renal was 2.59 µM; with SF-295 CNS, 3.49 µM; in the assay on SK-OV-3 ovarian, 5.55 µM. Further, the TGI in the assay with 786-0 renal is > 91.1 µM; in the assay on CCRF-CEM leukemia, > 100 µM; in the assay with KM12 colon, > 100 µM; with LOX IMVI melanoma, > 100 µM; with MALME-3M melanoma, > 100 µM; with OVCAR-3 ovarian, > 100 µM. Also, the TGI with RXF 393 renal is 25.3 µM; in the assay with SF-295 CNS, > 26.1 µM; in the assay with SK-OV-3 ovarian it was > 100 µM.
Take `N#CNC(N)=Nc1ccc(Cl)cc1`: the TGI in the assay on 786-0 renal, with A498 renal, in the assay with KM12 colon, in the assay on LOX IMVI melanoma, in the assay with MALME-3M melanoma and with OVCAR-3 ovarian was > 100 µM throughout. In addition, the TGI in the assay on RXF 393 renal, in the assay with SF-295 CNS and in the assay on SK-OV-3 ovarian was > 100 µM in each case.
